Source: ChEMBL document CHEMBL4270599, “Synthesis of a 3'-C-ethynyl-β-d-ribofuranose purine nucleoside library: Discovery of C7-deazapurine analogs as potent antiproliferative nucleosides” (Eur J Med Chem, 2018)

What was measured:
Assay type in all cases: functional
A549 = assay: Cytotoxicity against human A549 cells after 48 hrs by SRB assay; conditions: A549, 48 h
HOP-62 = assay: Cytotoxicity against human HOP62 cells after 48 hrs by SRB assay; conditions: HOP-62, 48 h
NCI-H23 = assay: Cytotoxicity against human NCI-H23 cells after 48 hrs by SRB assay; conditions: NCI-H23, 48 h
HCC 2998 = assay: Cytotoxicity against human HCC2998 cells after 48 hrs by SRB assay; conditions: HCC 2998, 48 h
Malme-3M = assay: Cytotoxicity against human MALME-3M cells after 48 hrs by SRB assay
SK-MEL-28 = assay: Cytotoxicity against human SK-MEL-28 cells after 48 hrs by SRB assay; conditions: SK-MEL-28, 48 h
MDA-MB-231 = assay: Cytotoxicity against human MDA-MB-231 cells after 48 hrs by SRB assay; conditions: MDA-MB-231, 48 h
MDA-MB-468 = assay: Cytotoxicity against human MDA-MB-468 cells after 48 hrs by SRB assay; conditions: MDA-MB-468, 48 h
K562 [1] = assay: Growth inhibition of human K562 cells assessed as cell growth at 10^-8 M incubated for 48 hrs by sulforhodamine B assay relative to control; conditions: K562, 48 h, read-out: Activity
COLO 205 [2] = assay: Growth inhibition of human COLO205 cells assessed as cell growth at 10^-8 M incubated for 48 hrs by sulforhodamine B assay relative to control; conditions: COLO 205, 48 h, read-out: Activity
SK-MEL-5 = assay: Growth inhibition of human SK-MEL-5 cells assessed as cell growth at 10^-8 M incubated for 48 hrs by sulforhodamine B assay relative to control; conditions: SK-MEL-5, 48 h, read-out: Activity
OVCAR-3 = assay: Growth inhibition of human OVCAR3 cells assessed as cell growth at 10^-8 M incubated for 48 hrs by sulforhodamine B assay relative to control; conditions: OVCAR-3, 48 h, read-out: Activity
OVCAR-4 = assay: Growth inhibition of human OVCAR4 cells assessed as cell growth at 10^-8 M incubated for 48 hrs by sulforhodamine B assay relative to control; conditions: OVCAR-4, 48 h, read-out: Activity
K562 [3] = assay: Growth inhibition of human K562 cells assessed as cell growth at 10^-7 M incubated for 48 hrs by sulforhodamine B assay relative to control; conditions: K562, 48 h, read-out: Activity
MOLT-4 = assay: Growth inhibition of human MOLT4 cells assessed as cell growth at 10^-7 M incubated for 48 hrs by sulforhodamine B assay relative to control; conditions: MOLT-4, 48 h, read-out: Activity
RPMI-8226 = assay: Growth inhibition of human RPMI8226 cells assessed as cell growth at 10^-7 M incubated for 48 hrs by sulforhodamine B assay relative to control; conditions: RPMI-8226, 48 h, read-out: Activity
NCI-H322M = assay: Growth inhibition of human NCI-H322M cells assessed as cell growth at 10^-7 M incubated for 48 hrs by sulforhodamine B assay relative to control; conditions: read-out: Activity
U-251 [4] = assay: Growth inhibition of human U251 cells assessed as cell growth at 10^-7 M incubated for 48 hrs by sulforhodamine B assay relative to control; conditions: U-251, 48 h, read-out: Activity
LOX IMVI = assay: Growth inhibition of human LOXIMVI cells assessed as cell growth at 10^-7 M incubated for 48 hrs by sulforhodamine B assay relative to control; conditions: read-out: Activity
OVCAR-5 [5] = assay: Growth inhibition of human OVCAR5 cells assessed as cell growth at 10^-7 M incubated for 48 hrs by sulforhodamine B assay relative to control; conditions: OVCAR-5, 48 h, read-out: Activity
ACHN [6] = assay: Growth inhibition of human ACHN cells assessed as cell growth at 10^-7 M incubated for 48 hrs by sulforhodamine B assay relative to control; conditions: read-out: Activity
SR = assay: Growth inhibition of human SR cells assessed as cell growth at 10^-6 M incubated for 48 hrs by sulforhodamine B assay relative to control; conditions: read-out: Activity
NCI-H460 = assay: Growth inhibition of human NCI-H460 cells assessed as cell growth at 10^-6 M incubated for 48 hrs by sulforhodamine B assay relative to control; conditions: NCI-H460, 48 h, read-out: Activity
SNB-19 = assay: Growth inhibition of human SNB19 cells assessed as cell growth at 10^-6 M incubated for 48 hrs by sulforhodamine B assay relative to control; conditions: SNB-19, 48 h, read-out: Activity
U-251 [7] = assay: Growth inhibition of human U251 cells assessed as cell growth at 10^-6 M incubated for 48 hrs by sulforhodamine B assay relative to control; conditions: U-251, 48 h, read-out: Activity
ACHN [8] = assay: Growth inhibition of human ACHN cells assessed as cell growth at 10^-6 M incubated for 48 hrs by sulforhodamine B assay relative to control; conditions: read-out: Activity
Hs-578T = assay: Growth inhibition of human Hs 578T cells assessed as cell growth at 10^-6 M incubated for 48 hrs by sulforhodamine B assay relative to control; conditions: read-out: Activity
COLO 205 [9] = assay: Growth inhibition of human COLO205 cells assessed as cell growth at 10^-5 M incubated for 48 hrs by sulforhodamine B assay relative to control; conditions: COLO 205, 48 h, read-out: Activity
SF-268 = assay: Growth inhibition of human SF268 cells assessed as cell growth at 10^-5 M incubated for 48 hrs by sulforhodamine B assay relative to control; conditions: SF-268, 48 h, read-out: Activity
DU-145 = assay: Growth inhibition of human DU145 cells assessed as cell growth at 10^-5 M incubated for 48 hrs by sulforhodamine B assay relative to control; conditions: DU-145, 48 h, read-out: Activity
OVCAR-5 [10] = assay: Growth inhibition of human OVCAR5 cells assessed as cell growth at 10^-4 M incubated for 48 hrs by sulforhodamine B assay relative to control; conditions: OVCAR-5, 48 h, read-out: Activity
UACC-62 = assay: Growth inhibition of human UACC62 cells assessed as cell growth at 10^-5 M incubated for 48 hrs by sulforhodamine B assay relative to control; conditions: UACC-62, 48 h, read-out: Activity
[11] = read-out: pLC50 (the source's name) (converted)
[12] = read-out: LC50 (the source's name)

C#C[C@@]1(O)[C@@H](CO)O[C@@H](n2ccc3c(N)ncnc32)[C@@H]1O
TGI (A549; read-out: TGI): > 100 µM | GI50 (A549; read-out: pGI50 (converted)): 1.32 µM | CC50 (A549; [11]): > 100 µM | TGI (A549; read-out: pTGI (converted)): > 100 µM | TGI (HOP-62; read-out: TGI): 7.91 µM | GI50 (HOP-62; read-out: pGI50 (converted)): 2.04 µM | CC50 (HOP-62; [11]): > 100 µM | TGI (HOP-62; read-out: pTGI (converted)): 7.94 µM | CC50 (NCI-H23; [12]): > 100 µM | TGI (NCI-H23; read-out: TGI): 4.32 µM | GI50 (NCI-H23; read-out: pGI50 (converted)): 1.17 µM | TGI (NCI-H23; read-out: pTGI (converted)): 4.37 µM | TGI (HCC 2998; read-out: TGI): 3.12 µM | GI50 (HCC 2998; read-out: pGI50 (converted)): 1.45 µM | CC50 (HCC 2998; [11]): 6.76 µM | TGI (HCC 2998; read-out: pTGI (converted)): 3.09 µM | GI50 (Malme-3M; read-out: GI50): 1.68 µM | TGI (Malme-3M; read-out: TGI): 5.55 µM | GI50 (Malme-3M; read-out: pGI50 (converted)): 1.66 µM | CC50 (Malme-3M; [11]): 30.9 µM | TGI (Malme-3M; read-out: pTGI (converted)): 5.5 µM | CC50 (SK-MEL-28; [12]): > 100 µM | TGI (SK-MEL-28; read-out: TGI): 20.2 µM | GI50 (SK-MEL-28; read-out: pGI50 (converted)): 3.98 µM | TGI (SK-MEL-28; read-out: pTGI (converted)): 20 µM | TGI (MDA-MB-231; read-out: TGI): 5.89 µM | GI50 (MDA-MB-231; read-out: pGI50 (converted)): 1.51 µM | CC50 (MDA-MB-231; [11]): 83.2 µM | TGI (MDA-MB-231; read-out: pTGI (converted)): 5.89 µM | TGI (MDA-MB-468; read-out: TGI): 3.33 µM | GI50 (MDA-MB-468; read-out: pGI50 (converted)): 1.29 µM | CC50 (MDA-MB-468; [11]): 8.51 µM | TGI (MDA-MB-468; read-out: pTGI (converted)): 3.31 µM | growth at 0.01 µM (K562 [1]): 103% | growth at 0.01 µM (COLO 205 [2]): 95% | growth at 0.01 µM (SK-MEL-5): 102% | growth at 0.01 µM (OVCAR-3): 105% | growth at 0.01 µM (OVCAR-4): 93% | growth at 0.1 µM (K562 [3]): 93% | growth at 0.1 µM (MOLT-4): 95% | growth at 0.1 µM (RPMI-8226): 98% | growth at 0.1 µM (NCI-H322M): 94% | growth at 0.1 µM (U-251 [4]): 107% | growth at 0.1 µM (LOX IMVI): 99% | growth at 0.1 µM (OVCAR-5 [5]): 106% | growth at 0.1 µM (ACHN [6]): 101% | growth at 1 µM (SR): 46% | growth at 1 µM (NCI-H460): 30% | growth at 1 µM (SNB-19): 67% | growth at 1 µM (U-251 [7]): 80% | growth at 1 µM (ACHN [8]): 33% | growth at 1 µM (Hs-578T): 114% | growth at 10 µM (COLO 205 [9]): -54% | growth at 10 µM (SF-268): 5% | growth at 10 µM (DU-145): -8% | growth at 100 µM (OVCAR-5 [10]): -31% | growth at 10 µM (UACC-62): -44%
